Assay results from patent US10463656B2, “Methods and compositions for prevention of feedlot bovine respiratory disease” (Iowa State University Research Foundation, Inc., priority 2017, dated 2019).
Entries after “also recorded” stand apart in the source; their conditions may differ.

Tests used:
[1] = biological target: T1, Bovine H1 histamine receptor (Bos taurus, UniProt P30546); assay: Histamine-mediated intracellular calcium accumulation in BHK cells transiently expressing bovine H1 histamine receptor; type: cell-based; settings: 10 nM histamine; transfected BHK cells
T1 construct: expressed in transfected cells; host or cells: BHK cells, transient transfection with lipofectamine, pcDNA3.3
T1 sequence (P30546 whole entry): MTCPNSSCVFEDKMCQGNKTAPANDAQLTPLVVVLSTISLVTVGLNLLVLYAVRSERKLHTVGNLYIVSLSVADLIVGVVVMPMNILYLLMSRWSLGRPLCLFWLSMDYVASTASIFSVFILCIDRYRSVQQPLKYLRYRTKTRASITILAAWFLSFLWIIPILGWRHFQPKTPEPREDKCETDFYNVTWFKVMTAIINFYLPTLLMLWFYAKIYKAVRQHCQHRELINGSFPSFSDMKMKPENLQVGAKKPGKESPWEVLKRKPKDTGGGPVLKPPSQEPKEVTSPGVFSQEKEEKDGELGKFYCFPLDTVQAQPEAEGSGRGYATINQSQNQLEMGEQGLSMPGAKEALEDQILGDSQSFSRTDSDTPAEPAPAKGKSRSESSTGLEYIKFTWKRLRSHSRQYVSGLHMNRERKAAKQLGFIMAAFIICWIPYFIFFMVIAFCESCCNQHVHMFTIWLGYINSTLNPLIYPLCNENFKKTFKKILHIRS
Protocol: Bovine H1 histamine receptor was cloned into pcDNA3.3 expression vector and transiently expressed in BHK tissue culture cells using lipofectamine as per Carlson et al. Ten nM histamine was then added to the cells in the presence of various concentrations of rupatadine, tripelennamine, lexipafant, or WEB2086. Intracellular calcium accumulation was monitored in the transfected cells using a commercially available kit (Abcam, Cambridge, Mass.). IC50 values were then determined by identifying the concentration of the antagonist that reduced the maximal PAF-mediated intracellular calcium accumulation by 50%. […] Therefore, as showing in Examples 11 and 12, rupatadine is the only antihistamine that can also block the function of PAFR.

Bovine PAFR = biological target: T2, Bovine PAFR (Bos taurus, UniProt Q9TTY5); assay: PAF-mediated intracellular calcium accumulation in BHK cells transiently expressing bovine PAFR; type: cell-based; settings: 10 nM PAF, transfected BHK cells; for block of bovine PAFR function, PAF-mediated intracellular calcium accumulation (FIG. 11): antagonist 1-100 nM; for block of bovine PAFR function by antihistamines, PAF-mediated intracellular calcium accumulation (FIG. 12): antihistamine 1-100 nM
T2 construct: expressed in transfected cells; host or cells: BHK cells, transient transfection with lipofectamine, pcDNA3.3-PAFR
T2 sequence (Q9TTY5 whole entry): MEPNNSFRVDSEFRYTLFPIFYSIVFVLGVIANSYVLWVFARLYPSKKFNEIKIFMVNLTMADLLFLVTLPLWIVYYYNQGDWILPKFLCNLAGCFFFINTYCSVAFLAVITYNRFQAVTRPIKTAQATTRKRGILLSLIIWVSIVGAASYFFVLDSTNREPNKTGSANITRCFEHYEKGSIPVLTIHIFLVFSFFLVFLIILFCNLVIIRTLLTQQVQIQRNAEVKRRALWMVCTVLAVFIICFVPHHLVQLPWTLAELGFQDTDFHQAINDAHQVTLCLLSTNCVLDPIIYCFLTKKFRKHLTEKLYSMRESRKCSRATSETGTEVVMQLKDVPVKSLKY
Protocol: Bovine PAFR was cloned into pcDNA3.3 expression vector and transiently expressed in BHK tissue culture cells using lipofectamine as per Carlson et al., J Biol Chem, 271:23146053 (1996), herein incorporated by reference in its entirety. Ten nM PAF was then added to the cells in the presence of various concentrations of various antagonists: rupatadine, lexipafant (as in Kingsnorth, et al., BJS, 82:1414-20 (1995), herein incorporated in its entirety), and WEB2086 a PAF antagonist which has not been commercialized and/or used in humans to date (as in Casals-Stenzel et al., J of Pharmacolo Experimental Therapeutics, 241:974-81 (1987), herein incorporated in its entirety), as well as tripelennamine, a bovine-approved antihistamine at concentrations ranging between 1-100 nM. Intracellular calcium accumulation was monitored in the transfected cells using a commercially available kit (Abcam, Cambridge). IC50 values were then determined by identifying the concentration of the antagonist that reduced the maximal PAF-mediated intracellular calcium accumulation by 50%.
Various antihistamines were also tested. […] Intracellular calcium accumulation was monitored in the transfected cells using a commercially available kit (Abcam, Cambridge). IC50 values were then determined by identifying the concentration of the antagonist that reduced the maximal PAF-mediated intracellular calcium accumulation by 50%.

BRD [2] = assay: BRD prevention in high-risk calves, treatment methods of rupatadine (Example 14); type: in vivo
Protocol: In order to test various treatment methods of rupatadine, 25 high-risk calves were transported to a new farm. Seven calves were used as controls, six were given rupatadine as a single oral dose of 1 mg/kg, six were given rupatadine as a single subcutaneous injection of 7 mg/kg, six calves were given weekly subcutaneous injections of 7 mg/kg rupatadine. The animals were observed over the next five weeks twice daily for BRD. Any animal who required antibiotics for treating the clinical signs of BRD was classified as having BRD.
All the calves (100%, n=6 of 6) eventually developed BRD between days three and 31. […] The calf that did develop BRD did so on day 31.

[3] = Pharmacotherapeutic study, blood levels after oral administration to feedlot calves; type: in vivo; settings: daily oral doses of 30 mg/animal for 5 days; six calves
Protocol: A pharmacotherapeutic study was completed to confirm the PAFRi survives the rumen and reaches therapeutic blood and lung concentrations following oral administration to feedlot calves. Six calves were purchased and given daily oral doses of 30 mg/animal of the drug rupatadine for 5 days. Blood was drawn five times on day one and twice per day thereafter to measure the blood levels of rupatadine.

PAFR [4] = assay: PAFR level in blood of treated calves by qRT-PCR (Example 14); type: in vivo; settings: weekly depot injection versus control and other rupatadine treatments
Protocol: Blood was extracted from all 25 calves was extracted weekly and the level of PAFR was assayed using qRT-PCR and the theoretical copies of transcript/200 ng of total RNA. […] However, it dropped the most in the weekly depot injection calves during the last three weeks of observations.

PAFR [5] = biological target: T3, PAFR (Bos taurus, UniProt Q9TTY5); assay: Stress hormone- and commensal oral bacteria-mediated second messenger accumulation in calf blood cells; type: cell-based, cattle; settings: 500 nM inhibitor, blood of animals with increased PAFR expression, cortisol 5 ng/mL, norepinephrine 100 pg/mL, 10^6 CFUs/mL bacteria, six hours 37°C
T3 construct: endogenous in cells; host or cells: whole blood cells of cattle (ex vivo)
T3 sequence (Q9TTY5 whole entry): as above
Description: A PAFR inhibitor blocks the stress hormone- and commensal oral bacteria-mediated second messenger accumulation in calf blood cells that have an increase in expression of PAFR. Studies presented in Example 1 and FIG. 1 were repeated with the inclusion of the compositions comprising the anti-inflammatory drug rupatadine according to the invention. Blood was drawn from 10 animals that have an increase in PAFR expression (those in which an RT-PCR amplicon was visible after 10-15 cycles) and 10 animals with “normal” or no PAFR expression (those in which an RT-PCR amplicon was visible after 30-45 cycles).
Approximately 5 mL of whole blood was collected from the jugular or caudal vein of non-transported juvenile and adult cattle. Blood was placed in EDTA tubes, aliquoted, and cortisol (5 ng/mL) and norepinephrine (100 pg/mL) were added to some of the blood. The next day, blood samples were incubated with 0 or 10^6 CFUs/mL of commensal oral bacteria, 0 or 500 nM of the inhibitor, and a second messenger reagent for six hours at 37° C. with gentle rolling. After the six-hour incubation period, blood samples were analyzed for the production of second messengers. Data was standardized based on second messenger production in the presence of vehicle. […] Fifty ng of total RNA was then subjected to semi-quantitative RT-PCR to confirm the PAFR expression status of each animal.

BRD [6] = assay: BRD prevention in high-risk calves, weekly injections (Example 13); type: in vivo; settings: after five weeks of weekly subcutaneous 7 mg/kg; BRD(+) calves usually >25%
Protocol: Twenty-five high-risk BRD calves were transported to a new barn and five each were assigned to different treatment groups: no treatment, weekly subcutaneous injections of 7 mg/kg of rupatadine, weekly injections of 1 mg/kg tripelennamine, weekly injections of 10 mg/kg WEB2086, and weekly injections of 1 mg/kg tripelennamine and 10 mg/kg WEB2086. The animals were observed over the next five weeks twice daily for BRD. Any animal who required antibiotics for treating the clinical signs of BRD was classified as having BRD. […] Four of the five (80%, n=4 of 5) animals receiving tripelennamine only developed BRD.
After the five weeks, the rupatadine treated animals were euthanized and the lungs removed and necropsied. Three veterinarians then assessed the lungs for signs of disease, such as abscessation or consolidation. […] Lung pathology in BRD(+) calves is usually >25%, and of the rupatadine treated animals, there was only about 5-10% disease identified by the veterinarians.

BRD [7] = assay: BRD prevention at the feedlot, drug in the feed; type: in vivo, calves
Protocol: An initial study was performed to confirm BRD prevention at the feedlot using an anti-inflammatory composition comprising rupatadine, the oral inhibitor of PAFR. A total of 18 calves were evaluated with the treatment arm receiving a dosage rate of 0.3 mg/kg. Calves were provided the drug in the feed during the first three weeks after entering the feedlot which is within the high risk 6-week period following transfer of the animal. Calves were purchased from a location in Joplin, Mo. having an overall incidence of BRD at >40% which is higher than the standard incidence of about 10% in cattle.
A further study was performed to confirm BRD prevention at the feedlot using the anti-inflammatory composition comprising rupatadine. The same methodology of Example 5 was employed with the modification of the number of calves and the dosage rate. The dosage rate was increased to 0.6 mg/kg. The number of calves were increased to 24 in total. The results are consistent to the first trial, including: 41.7% of treated calves (n=5 of 12) developed BRD whereas 100% of untreated calves (n=12 of 12) developed BRD.
A further study was performed to confirm BRD prevention at the feedlot using the anti-inflammatory composition comprising rupatadine as outlined in Example 5 with the modification of the number of calves (20 total) and the dosage rate. The dosage rate increased to 1.2 mg/kg.

Row | SMILES | block of the function of the H1 histamine receptor, intracellular calcium accumulation (FIG. 13) [1] | block of bovine PAFR function, PAF-mediated intracellular calcium accumulation (FIG. 11) (Bovine PAFR) | block of bovine PAFR function by antihistamines, PAF-mediated intracellular calcium accumulation (FIG. 12) (Bovine PAFR) | other results
1 | Cc1nnc2n1-c1sc(CCC(=O)N3CCOCC3)cc1C(c1ccccc1Cl)=NC2 [WEB2086] | fail to black | blocked |  | 
2 | CN(C)CCOC(c1ccccc1)c1ccccc1 [diphenhydramine] |  |  | do not block | 
3 | OCCOCCN1CCN(C(c2ccccc2)c2ccc(Cl)cc2)CC1 (stereo not shown) [hydroxyazine] |  |  | do not block | 
4 | CCOC(=O)[C@H](CC(C)C)N(C)S(=O)(=O)c1ccc(Cn2c(C)nc3cnccc32)cc1 [lexipafant] | fail to black | blocked |  | 
5 | CC(CN1c2ccccc2Sc2ccccc21)N(C)C (stereo not shown) [promethazine] |  |  | do not block | 
6 | COc1ccc(CN(CCN(C)C)c2ccccn2)cc1 [pyrilamine] |  |  | do not block | 
7 | Cc1cncc(CN2CCC(=C3c4ccc(Cl)cc4CCc4cccnc43)CC2)c1 [rupatadine, 8-chloro-11-[1-[(5-methyl-3-pyridyl)methyl]-4-piperidyliden]-6,11-dihydro-5H-benzo[5,6]cyclohepta[1,2-b]pyridine] | able to block | blocked | able to block PAFR function; also recorded: blocks | high risk animals that did not develop BRD (BRD [2]; weekly long-acting injections of 7 mg/kg): five out of six; animals that developed BRD (BRD [2]; weekly subcutaneous injections of 7 mg/kg, five-week observation, n=6): 16.7%; day on which the calf developed BRD (BRD [2]; weekly subcutaneous injections of 7 mg/kg, the one calf that developed BRD): 31 days; blood levels of rupatadine (FIG. 9) [3]: reaches therapeutic concentrations more rapidly than in humans; PAFR expression over a five-week period (PAFR [4]): greatest decrease in PAFR expression; stress hormone- and commensal oral bacteria-mediated second messenger accumulation (PAFR [5]): blocks; stress hormone- and commensal oral bacteria-mediated second messenger accumulation (PAFR [5]; listed as PAFRi): indistinct from normal or non-expressing samples; lung disease identified by the veterinarians at necropsy (BRD [6]): 5-10%; treated calves that developed BRD (BRD [7]; 0.3 mg/kg in the feed, first three weeks after entering the feedlot, 8 treated calves, within 5 weeks): 50%; treated calves that developed BRD (BRD [7]; 0.6 mg/kg in the feed, n=5 of 12): 41.7%; treated calves that developed BRD (BRD [7]; 1.2 mg/kg in the feed, n=3 of 10): 33.3%
8 | CN(C)CCN(Cc1ccccc1)c1ccccn1 [tripelennamine] | able to block | not blocked | do not block | 
